# “And” between values parts separate entries of the source, which are not always exact repeats. Equal values may be shown once.
# Columns and labels:
# NCI-H929 cells [1] = experiment: BCMA expression by flow cytometry after GSI incubation; type: cell-based; conditions: 1 μM DAPT, 24 hrs, vs without
# Molp-8 cells [2] = experiment: as above; type: cell-based; conditions: 1 μM DAPT, 24 hrs, vs without
# Molp-8 cells [3] = experiment: FcγRIII signaling surrogate assay (Promega ADCC reporter bioassay, CD16A-Jurkat effector cells); type: cell-based; conditions: antibody dose titrations +/- GSI (DAPT), 6:1 effector-to-target ratio, overnight
# Protocol: (§1) NCI-H929 or Molp-8 MM target cells were incubated with and without 1 μM DAPT for 24 hrs. […] FcγRIII signaling was determined using a surrogate assay as manufacturer describes (Promega ADCC reporter bioassay cat #G9302). Cells were bound with antibody dose titrations+/−GSI for 30 minutes at 37° C. CD16A-Jurkat effector cells were then added with a 6:1 effector-to-target cell ratio. After an overnight incubation, the assay was developed with Bio-Glo and relative luminescence units (RLU) were measured on an Envision plate reader. […] Enhanced signaling is the first step in the primary mechanism of action of SEA-BCMA. This signaling can translate to increased anti-MM cell lysis through ADCC.
# NCI-H929 cells [4] = experiment: as above; type: cell-based; conditions: antibody dose titrations +/- GSI (DAPT), 6:1 effector-to-target ratio, overnight
# Protocol: as §1
# [5] = tested on: BCMA-expressing NCI-H929 cells; experiment: NF-κB p65 activity ELISA of nuclear extract (TransAM NFκB Chemi p65); type: cell-based
# Protocol: The secondary mechanism of action of SEA-BCMA is to block BCMA proliferative cell signaling. Increased BCMA from GSI treatment is expected to induce increased BCMA signaling. Therefore, the block of this enhanced signaling by SEA-BCMA was tested. BCMA-expressing NCI-H929 cells were serum-starved with and without 0.2 μM Nirogacestat (purchased from SelleckChem) for 16 hrs. Cells were then bound with and without 20 μg/mL SEA-BCMA and incubated with and without 1 μg/ml recombinant human APRIL (R&D Systems) for 20 minutes at 37° C. in the presence or absence of 0.2 μM Nirogacestat. 1 μg of nuclear extract was assayed in duplicate for NF-κB p65 activity by ELISA (TransAM NFκB Chemi p65, Active Motif).
# FcγRIII = FcγRIII (Homo sapiens, UniProt P08637); experiment: FcγRIII binding affinity versus fucosylated anti-BCMA antibodies; conditions: in comparison to fucosylated anti-BCMA antibodies
# Multiple myeloma cells [6] = experiment: BCMA expression after nirogacestat incubation; type: cell-based; conditions: 0.2 μM nirogacestat, 24 hours, vs without
# Description: (§2) These pre-clinical data supported the combination of SEA-BCMA with nirogacestat in clinical studies.
# U266 = experiment: BCMA expression by flow cytometry after Nirogacestat incubation; type: cell-based; conditions: 0.2 μM Nirogacestat, 24 hrs
# Multiple myeloma cells [7] = experiment: ADCC with NK effector cells enriched from normal donor PBMC; type: cell-based; conditions: nirogacestat treated multiple myeloma cells combined with NK effector cells
# Description: as §2
# Molp-8 MM target cells = experiment: ADCC 51Cr release assay with donor NK cells; type: cell-based; conditions: SEA-BCMA titrations, 0.2 μM Nirogacestat vs without, NK:target 10:1, 4h, FcγRIII V/V donor
# Protocol: Whether the enhanced FcγRIII signaling translated to increased lysis of MM target cells by SEA-BCMA was determined. Molp-8 MM target cells were incubated with and without 0.2 μM Nirogacestat (purchased from SelleckChem) for 24 hrs. Cells were then Na2 [^51Cr] O4 labeled and added to titrations of SEA-BCMA, or isotype antibody control. Effector cells, NK cells enriched from normal donor PBMC, were added at an effector-to-target cell ratio of 10:1 (50,000:5000). Donor NK cells were of the high affinity FcγRIII V/V genotype. The combination of antibodies, NK cells and target cells were incubated for 4h at 37° C. with and without Nirogacestat. The radioactivity released into the culture supernatant of lysed target cells was then measured and the percent specific cell lysis calculated. […] This is the primary of mechanism of action of SEA-BCMA and translates to specific enhanced anti-MM lysis. It is expected that this will translate to improvements in anti-MM activity in the clinic when SEA-BCMA is combined with GSIs.
# [8] = 100 mg BID dose; cited from earlier work
# patients = conditions: cited from earlier work
# [9] = patients receiving nirogacestat
# Protocol for patients with RRMM: This study evaluated the safety and antitumor activity of SEA-BCMA in patients with RRMM.
# The monotherapy dose-escalation portion of the trial was conducted in approximately 25 patients.
# Enrollment in this study occurred on a cohort-by-cohort basis. Multiple cohorts were treated at each dose level, with a maximum of 4 patients treated per cohort. Decisions on dose escalation and subsequent cohort size were made in consultation with the safety monitoring committee (SMC) after completion of each cohort. […] In addition, as a precaution, for the first 2 patients in the study there was a 72-hour observation period before the next patient can be dosed. At dose levels above Dose Level 1, a 24-hour observation period was required after the first patient received their first dose of SEA-BCMA, prior to dosing subsequent patients at that dose level. […] Patients who were considered not evaluable for DLT during Cycle 1 were replaced. […] The MTD or optimal dose was estimated based on data from all patients across all evaluated doses.
# SEA-BCMA was initially administered once every 2 weeks (q2wk) in 4-week cycles at the planned doses shown in Table 2; a dosing interval of every 4 weeks (q4wk) was explored.
# To further characterize the safety and antitumor activity of SEA-BCMA, an expansion cohort of up to approximately 40 patients were enrolled.
# The DLT-evaluation period was the first cycle of treatment. […] In the event of a Grade 3 IRR in ≥20% of patients (i.e., 2 or more in the first 10 patients), all subsequent patients will require premedication and/or modification of infusion approach per the recommendation of the SMC.
# FcγRIII, sequence (P08637 17-254): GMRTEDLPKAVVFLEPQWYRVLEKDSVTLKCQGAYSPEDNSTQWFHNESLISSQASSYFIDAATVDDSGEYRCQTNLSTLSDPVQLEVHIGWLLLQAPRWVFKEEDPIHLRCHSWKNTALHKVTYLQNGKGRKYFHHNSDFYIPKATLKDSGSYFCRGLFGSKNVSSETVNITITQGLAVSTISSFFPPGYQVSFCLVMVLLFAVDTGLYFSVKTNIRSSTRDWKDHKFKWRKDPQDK
molecule,measurement,setting,value
C[C@H](NC(=O)Cc1cc(F)cc(F)c1)C(=O)N[C@H](C(=O)OC(C)(C)C)c1ccccc1 [DAPT],BCMA expression,NCI-H929 cells [1],increased BCMA expression
same,BCMA expression,Molp-8 cells [2],increased BCMA expression
same,FcγRIII signaling,Molp-8 cells [3],increased FcγRIII signaling
same,FcγRIII signaling,NCI-H929 cells [4],increased FcγRIII signaling
"SEA-BCMA: non-fucosylated monoclonal anti-BCMA antibody, heavy chain SEQ ID NO: 13, light chain SEQ ID NO: 15",Block of NF-κB signaling increased by Nirogacestat,"[5]; 20 μg/mL SEA-BCMA, 0.2 μM Nirogacestat, +/- 1 μg/ml APRIL",partially blocked
same,FcγRIII binding affinity,FcγRIII,enhanced
same,Delayed-onset infusion-related reactions (IRRs),patients with RRMM; dose escalation cohort,no instances
same,Safety profile at high doses,"patients with RRMM; high doses, e.g. 800 mg or 1600 mg per dose, initial results",tolerable safety profile
same,MTD in dose escalation,"patients with RRMM; human, in vivo",without exceeding MTD
"CCC[C@H](N[C@H]1CCc2cc(F)cc(F)c2C1)C(=O)Nc1cn(C(C)(C)CNCC(C)(C)C)cn1 [nirogacestat, (S)-2-(((S)-6,8-difluoro-1,2,3,4-tetrahydronaphthalen-2-yl)amino)-N-(1-(2-methyl-1-(neopentylamino)propan-2-yl)-1H-imidazol-4-yl)pentanamide]",BCMA expression,Multiple myeloma cells [6],increased BCMA expression
same,BCMA expression,U266,increased BCMA expression
same,ADCC,Multiple myeloma cells [7],increased ADCC
same,ADCC (percent specific cell lysis),Molp-8 MM target cells,Increased ADCC
same,NF-κB p65 signaling (RLU),"[5]; 0.2 μM Nirogacestat 16 hrs serum-starved, +/- 1 μg/ml APRIL 20 minutes",increased NF-κB signaling
same,Cmin at steady-state,[8],232 ng/mL and 471 nM
same,Events of diarrhea,patients; [9],commonly reported
same,Events of skin rash,patients; [9],reported
same,Follicular cysts,"patients; phase 2 study in desmoid patients conducted by the NCI (O'Sullivan Coyne, 2018)",observed
